Reference: patent US7943667B2, “Potentiating the effect of compound comprising nitric oxide” (Duke University, priority 2007, dated 2011)
Read-outs that look alike come from different tables or passages of the source.

Assays:
[1] = Transwell air-liquid interface exposure to NO or ENO gas, intracellular NO signal (DAF-FM); assay type: cell-based; details: NO or ENO gas 10 ppm for 4 hours; for NO signal produced by ENO or NO gas: buffer with 0.2 mM glutathione
Description: Cells were plated onto rat-tail collagen coated plastic inserts in a transwell system. When cells were firmly adherent and intact in appearance by microscopy, usually 24 h after plating, cell inserts were incubated in DAF-FM diacetate for one hour, then rinsed in Hepes-buffered Hank's balanced salt solution without amino acids. Buffer was removed from the upper chamber of the transwell and replaced with phosphate-buffered saline containing 0.2 mM glutathione in order to mimic the glutathione levels found in human alveolar lining fluid. […] The volume added was a few microliters sufficient to produce a layer of buffer ˜2 micron in thickness, in an effort to model the alveolar lining fluid thickness in the mammalian lung. Cell inserts were incubated at air liquid interface for 30 minutes, then exposed to NO or ENO gas 10 ppm for 4 hours. Inserts were then placed into a fluorescent microplate reader to detect the intracellular NO signal.

[2] = system: Rat L2 (alveolar) cells, alveolar T1/T2 cells, alveolar macrophages; test: NO gas at air-liquid interface, DAF-FM NO signal in L2, alveolar T1/T2 cells and alveolar macrophages; assay type: cell-based; details: NO gas 10 ppm x 4 h; for L-Cys increase of NO signal (effect of competitors): competitors 10 mM x 1 h; for NO signal in all cell types: D- or L-Cys 50 μM, 4-8 wells/group
Description: Rat L2 (alveolar) cells were used at passage 30. 1° alveolar T1/T2 cells were isolated from adult rat lungs with antibody-coated magnetic beads, and identified by immunocytochemistry (T1: T1^α, aquaporin-5; T2: pro-SP-C). Alveolar macrophages were obtained by lavage. Cells were plated onto collagen-coated transwells, grown submerged×2d, then incubated with DAF-FM to detect NO. Apical medium was replaced by buffer+glutathione 0.2 mM,±D-or L-Cys 50 μM±LAT competitors L-Leu or BCH, 10 mM×1 h then exposed to air or NO gas 10 ppm×4 h. Fluorescence was read in 4-8 wells/condition. LAT-1 expression was measured/RT-PCR in air or 95% O2-exposed newborn rat lung (day 2, 3, 4, 8).

Rat alveolar (L2) cells [3] = test: Intracellular NO signal (DAF-FM fluorescence) in L2 cells incubated with ENO; assay type: cell-based; details: ENO 10 mM, L-Leu 10 mM; for ENO induced intracellular NO signal (DAF): L-Cys 0.5 mM, by 24 minutes, N=5/group, p<0.05
Description: (§1) Rat alveolar (L2) cells were located with DAF-FM (converted intracellularly to DAF; NO^++DAF→fluorescense), then incubated with ENO 10 mM+L-Cys 0.5 mM, L-Leu 10 mM (competitor for L-Cys entry via LAT1), or both L-Cys+L-Leu. DAF signal was measured at 5, 10, and 24 min. In parallel studies, S—NO was measured in L2 cell lysates after co-incubation with ENO 0.2 mM±L-Cys 0.5 mM±L-Leu 10 mM by ozone chemiluminescense (normalized to protein). LAT1 protein was detected by western and immunocytochemistry in 8d air or 95% O2—exposed rat lung.

Rat alveolar (L2) cells [4] = test: S-NO in L2 cell lysates by ozone chemiluminescence; assay type: cell-based; details: for ENO induced SNO accumulation: ENO 0.2 mM ± L-Cys 0.5 mM ± L-Leu 10 mM, N=2/group
Description: as §1

[5] = Newborn piglet saline-lavage lung injury with pulmonary hypertension, pulmonary artery pressure; assay type: in vivo; details: lungs lavaged with saline, inhaled NO 10 ppm, 56 Torr before treatment
Description: Newborn piglet was anesthetized and a thoracotomy was performed after placing arterial and venous monitoring catheters. A catheter was placed in the pulmonary artery and flow sensors around the pulmonary artery were placed.

[6] = system: rat alveolar pulmonary epithelial cells (L2 and Type II); test: SNO/NO accumulation with NO donors in alveolar epithelial cells; assay type: cell-based; details: L-Cys added to NO donors; inhibited by co-incubation with LAT competitors
Description: We carried out experiments showing that addition of L-Cys to NO donors increased SNO/NO accumulation that was inhibited by co-incubation with LAT competitors in rat alveolar pulmonary epithelial cells (L2 and Type II). These are described in Granilla, O. M., AM. J. Physiol Lung Cell Mol. Physiol 295: L38-L43 (first published Apr. 25, 2008).

[7] = Working Example I: persistent pulmonary hypertension of the newborn; assay type: in vivo, human; details: L-cysteine 36 micrograms/kg by nebulizer, then inhaled ethyl nitrite or nitric oxide 1-50 ppm; from 88%
Description: A newborn is delivered at 41 weeks gestational age through thick meconium following a labor requiring augmentation with oxytocin. They are immediately noted at birth to experience respiratory distress and cyanosis. […] Their respiratory distress worsens requiring mechanical ventilation. […] The patient is treated with 36 micrograms/kg of L-cysteine by nebulizer attached to the inspiratory limb of the ventilator circuit, followed by initiation of inhaled ethyl nitrite or inhaled nitric oxide at 1-50 ppm. The patient SpO2 rises immediately from 88% to 100%, and systolic blood pressure improves. This example represents treatment of persistent pulmonary hypertension of the newborn.

[8] = Working Example II: prevention of bronchopulmonary dysplasia in a premature newborn; assay type: in vivo, human; details: L-cysteine 36 micrograms/kg daily with continuous ethyl nitrite 1-10 ppm for 14 days
Excerpt: The patient is born at 25 weeks estimated gestational age following preterm prolonged spontaneous rupture of amniotic membranes. The patient requires immediate endotracheal intubation at birth as well as mechanical ventilation. The patient receives the usual neonatal intensive care including exogenous surfactant administration, indomethacin prophylaxis for prevention of intraventricular hemorrhage, and intravenous antibiotics. Because the patient is at high risk to develop bronchopulmonary dysplasia, the patient is treated each day with a single dose of 36 micrograms/kg of L-cysteine and continuous ethyl nitrite at 1-10 ppm for a total of 14 days. (This is done via […] unless the patient should be extubated, in which case the inhaled ethyl nitrite is delivered via nasal cannula and the L-cysteine is administered once a day via nebulizer) Within five days, the patient is weaned from mechanical ventilation and extubated to nasal continuous positive airway pressure, continuing to receive inhaled […] 1-10 ppm, and daily L-cysteine at 36 micrograms/kg. […], the continuous positive airway pressure is discontinued. […] the patient is discharged home, without any diagnosed complications of extreme prematurity. This example represents prevention of development of bronchopulmonary dysphasia in a premature newborn infant.

lung cells = test: S-nitrosothiol uptake in lung cells (LAT / PEPT2 transport); assay type: cell-based, rat
Excerpt: It was shown in a kidney cell line that transportation of extracellular S-nitrosothiols in the form of S-nitroso-L-cysteine through the L-type amnio acid transporter (LAT1) is necessary to achieve maximum intracellular S-nitrosothiol accumulation. It was also shown that eliminating the L-type amino acid transporter or blockade of the transporter severely limited the ability of extracellular S-nitroso-L-cysteine to gain entry into the kidney cell line. […] The results for kidney cell line were then obtained for umbilical endothelial cells. This reinforced our conception. We then performed exposures of rat pulmonary alveolar epithelial cells to a variety of S-nitrosothiol and nitric oxide donors and tested whether or not S-nitrosothiol and nitric oxide uptake required transnitrosylation of L-cysteine and uptake through L-type amino acid transport. In particular we conducted experiments using rat alveolar epithelial cells. […] We also tested the dipeptide transporter, PEPT2. […] When we added L-cysteine to the mixture, the high levels of S-nitrosothiol uptake in lung cells were restored, and this restoration was blocked when we blocked function of L-type amino acid transporter by competition or inhibition.
We conducted additional studies to determine if an alternate transporter, namely PEPT2, could account for some of the S-nitrosothiol uptake in lung cells. […] This confirmed the importance of L-cysteine as the carrier which is necessary to achieve high levels of S-nitrosothiols in lung cells. We confirmed these finding in freshly isolated lung cells as well.

In the case of `NC1(C(=O)O)CC2CCC1C2` (stereo not drawn) [BCH, 2-aminobicyclo-(2,2,1)-heptane-2-carboxylic acid], the “L-cysteine augmentation of NO signal (effect of LAT competitors)” value ([1]; with L-cysteine) is reported as “completely abolished” and the “L-Cys increase of NO signal (effect of competitors)” value [2] is reported as “blocked”.

In the case of `N[C@H](CS)C(=O)O` [D-cysteine], the “NO signal produced by ENO or NO gas” value [1] is reported as “no effect” and the “NO signal in all cell types” value [2] is reported as “not”.

For `CCON=O` [ENO, ethyl nitrite], the “intracellular NO^+ (DAF)” value (Rat alveolar (L2) cells [3]; 5, 10 and 24 min) was “increased” and the “intracellular SNO” value (Rat alveolar (L2) cells [4]; ENO 0.2 mM) was “increased”.

With `[N]=O` [Inhaled nitric oxide, nitric oxide] the “peak pulmonary pressure / pulmonary artery pressure” value [5] was 45 Torr.

With `N[C@@H](CS)C(=O)O` [L-cysteine] the “ENO induced intracellular NO signal (DAF)” value (Rat alveolar (L2) cells [3]) was “augmented”, the SNO/NO accumulation [6] was “increased” and the SpO2 [7] was 100%. For the same compound, the “bronchopulmonary dysplasia at 36 weeks post conceptual age” value [8] was “no evidence of bronchopulmonary dysplasia”, the “NO signal produced by ENO or NO gas” value [1] was “augmentation” and the “S-nitrosothiol signal / accumulation in lung cells” value (lung cells) was “restored”. The “NO signal in all cell types” value [2] was “increased” and the “ENO induced SNO accumulation” value (Rat alveolar (L2) cells [4]) was “augmented”.

With `N[C@@H](CS)C(=O)NCC(=O)O` [L-cysteinyl-glycine] the “uptake in lung cells via dipeptide transporter PEPT2” value (lung cells) was “taken up”.

For `CC(C)C[C@H](N)C(=O)O` [L-leucine], the “ENO induced intracellular NO signal (DAF)” value (Rat alveolar (L2) cells [3]) was “significantly less”, the “L-Cys increase of NO signal (effect of competitors)” value [2] was “blocked” and the “ENO induced SNO accumulation” value (Rat alveolar (L2) cells [4]) was “did not augment”.

In the case of `N[C@@H](CSN=O)C(=O)NCC(=O)O` [S-nitroso-L-cysteinyl-glycine], the “S-nitrosothiol signal / accumulation in lung cells” value (lung cells) is reported as “could not achieve high levels” and the “S-nitrosothiol signal / accumulation in lung cells” value (lung cells; listed as S—NO-Cys-Gly) is reported as “did not significantly increase”.
